Experimental data from US12024506B2, “Compounds” (Oxford University Innovation Limited, priority 2018, dated 2024).
Entries after “also recorded” stand apart in the source; their conditions may differ.

What was measured:
[1] = target: T1, HRASG12V interaction with PI3K, CRAF, RALGDS (Homo sapiens, UniProt P01112, G12V); assay: BRET2 cell assay, HRAS G12V-effector interaction; type: cell-based; details: HEK293T cells, 5, 10 and 20 μM, 20 h
T1 construct: expressed in transfected cells; host or cells: HEK293T
Description: (§1) The BRET ratio corresponds to the light emitted by the GFP2 acceptor constructs (515 nm±30) upon addition of Coelenterazine 400a divided by the light emitted by the RLuc8 donor constructs (410 nm±80). The normalized BRET ratio is the BRET ratio normalized to the DMSO negative and calculated as follows: (BRETcompound/BRETDMSO)×100, where BRETcompound corresponds to the BRET ratio for the compound-treated cells, BRETDMSO to the DMSO-treated cells. Each experiment was repeated at least three times. Statistical analyses were performed using a one-way ANOVA followed by Dunnett's post-tests (*P<0.05, **P<0.01, ***P<0.001, ****P<0.0001). Where error bars are presented, they correspond to mean values±SD of biological repeats (a-c).
(§2) HEK293T cells were transfected 24 hr with plasmids expressing the NRAS Q61H […] and HRAS G12V (B, D) biosensors together with the indicated RBDs of PI3K, CRAF and RALGDS (A, B) or full-length CRAF. […]
(§3) 650,000 HEK293T were seeded in each well of a 6 well plate. […] The final concentrations in the cells were 0, 5, 10 and 20 µM (therefore the intermediate 10× concentrations were 0, 50, 100 and 200 μM. 10 μL of 10× compounds were added in each well of the 96 well plate to 0, 5, 10 and 20 µM final concentrations (with final 0.2% DMSO each). Quadruplicates were performed for each point. Cells were left for an additional 20 hours at 37° C. before the BRET2 signal reading directly after addition of Coelenterazine 400a substrate (10 µM final) to cells (Cayman Chemicals, cat #16157). BRET2 reading was carried out on an Envision instrument (2103 Multilabel Reader, PerkinElmer) with the BRET2 Dual Emission optical module (515 nm±30 and 410 nm±80; PerkinElmer).
(§4) The ability of Example compound 56 to inhibit RAS-effector PPI using the above cell-based RAS-effector BRET2 assay was investigated. […] We determined the effect of compound 56 (labelled Abd-7) on the interaction of KRAS^G12D and with PI3Kα and PI3Kγ, CRAF RAS-binding domain (RBD) and RALGDS RAS-associating domain (RA) compared with the low affinity Reference Compound Abd-2 FIG. 1a). […]

[2] = target: T2, NRASQ61H interaction with PI3K, CRAF, RALGDS (Homo sapiens, UniProt P01111, Q61H); assay: BRET2 cell assay, NRAS Q61H-effector interaction; type: cell-based; details: HEK293T cells, 5, 10 and 20 μM, 20 h
T2 construct: expressed in transfected cells; host or cells: HEK293T
Description: as §1, §2, §3, §4

[3] = target: T3, KRASG12D interaction with PI3Kα, PI3Kγ, CRAF RBD, RALGDS RA (Homo sapiens, UniProt P01116, G12D); assay: BRET2 cell assay, KRAS G12D-effector interaction; type: cell-based; details: HEK293T cells, 5, 10 and 20 μM, 20 h
T3 construct: expressed in transfected cells; host or cells: HEK293T
Description: as §1
as §3, with “plate. 24 hours later, cells were transfected with an appropriated BRET-based RAS biosensor (i.e. RAS-effector) using Lipofectamine 2000 transfection reagent (Thermo-Fisher).” for “plate.”
as §4

[4] = system: DLD1 cells (ATCC CCL-221); assay: Cell viability assay 1 (CellTiter-Glo), DLD1 cells; type: cell-based; details: Homo sapiens, DLD-1 cells, 48 h, second value of the cell, read-out: Cell Viability DLD-1 (concentration that decreases cell viability by 50%)
Outline: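 DLD1 cells grown in RPMI-1640 with 10% FCS, 2 mM L-glutamine, 37 °C, 5% CO2, plated overnight then exposed to compound (0.5% DMSO) for 48 h. Viability by CellTiter-Glo luminescence; value is concentration reducing viability by 50% from dose-response curves.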

[5] = system: H358 cells (ATCC CRL-5807); assay: Cell viability assay 1 (CellTiter-Glo), H358 cells; type: cell-based; details: Homo sapiens, NCI-H358, 48 h, first value of the cell, read-out: Cell Viability H358 (concentration that decreases cell viability by 50%)
Outline: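 H358 cells were grown in RPMI-1640 with 10% FCS and 2 mM L-glutamine, plated at 5000 cells/well and allowed to adhere overnight. Compound was added in 0.5% DMSO final for 48 h at 37° C. Viability was read by CellTiter-Glo luminescence, with the 50% viability-reducing concentration derived from dose-response curves.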

[6] = target: T4, GST-human KRas166 (G12V) GPPNHP (Homo sapiens, UniProt P01116, G12V); assay: KRas small-molecule screening by SPR (Biacore T200); type: binding; details: compound 100 uM, 5% DMSO buffer; immobilised GST-KRas166 (G12V) GPPNHP
T4 construct: made in house; host or cells: E. coli C41(DE3)
Outline: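 GST-KRas166 G12V loaded with GPPNHP, captured on anti-GST CM5 chip at 10,000–15,000 RU, GST reference channel. Compounds run at 100 uM in buffer with 100 mM NaCl, 5 mM MgCl2, 5% DMSO, with DMSO solvent correction; Rmax for 1:1 binding taken as 63 RU.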

Effect on BRET signal, HRAS G12V/effector interactions [1] | Effect on BRET signal, NRAS Q61H/effector interactions [2] | IC50 [4] [µM] | IC50 [5] [µM] | SPR Response Units [6] [Response Units] | Compound | Effect on BRET signal, KRAS G12D/effector interactions [3]
does not interfere with the BRET signal | does not interfere with the BRET signal |  |  |  | O=C(NCC1COc2ccccc2O1)c1ccco1 (stereo not drawn) [Abd-2, reference compound] | no effect on the BRET signal; also recorded: not with the Abd-2
 |  | 51.6 | 12.2 | 142 | COc1nc(-c2cccc3c2OCCO3)ccc1Nc1cccc(CC(=O)NC2CCNC(=O)C2)c1 (stereo not drawn) [Example 205, 2-{3-[6-(2,3-Dihydro-benzo[1,4]dioxin-5-yl)-2-methoxy-pyridin-3-ylamino]-phenyl}-N-(2-oxo-piperidin-4-yl)-acetamide] | 
 |  | 35.9 | 11 | 151 | COc1nc(-c2cccc3c2OCCO3)ccc1Nc1cccc(CC(=O)NC2CCC(=O)NC2)c1 (stereo not drawn) [Example 206, 2-{3-[6-(2,3-Dihydro-benzo[1,4]dioxin-5-yl)-2-methoxy-pyridin-3-ylamino]-phenyl}-N-(6-oxo-piperidin-3-yl)-acetamide] | 
 |  | 22 | 5.8 | 1189 | COc1nc(-c2cccc3c2OCCO3)ccc1Nc1cccc(CN2CCNCC2)c1 [Example 207, [6-(2,3-Dihydro-benzo[1,4]dioxin-5-yl)-2-methoxy-pyridin-3-yl]-(3-piperazin-1-ylmethyl-phenyl)-amine] | 
 |  | 5.8 | 17.4 | 1266 | COc1nc(-c2cccc3c2OCCO3)ccc1Nc1cccc(CN2CCN(Cc3cn[nH]c3)CC2)c1 [Example 208, [6-(2,3-Dihydro-benzo[1,4]dioxin-5-yl)-2-methoxy-pyridin-3-yl]-{3-[4-(1H-pyrazol-4-ylmethyl)-piperazin-1-ylmethyl]-phenyl}-amine] | 
 |  | 14.7 | 13.4 | 310 | COc1nc(-c2cccc3c2OCCO3)ccc1Nc1cccc(CNCc2cc[nH]n2)c1 [Example 209, [6-(2,3-Dihydro-benzo[1,4]dioxin-5-yl)-2-methoxy-pyridin-3-yl]-(3-{[(1H-pyrazol-3-ylmethyl)-amino]-methyl}-phenyl)-amine] | 
